Patent publication US8853232B2, “Peripheral opioid receptor antagonists and uses thereof” (Progenics Pharmaceuticals, Inc., priority 2007, dated 2014)

Legend:
human mu opioid receptor = human mu opioid receptor (Homo sapiens, UniProt P35372); assay: Radioligand competition binding at the human mu opioid receptor; settings: for nH (Hill coefficient): human mu opioid receptor, competition curves
Experimental: Compounds of the invention were assayed for activity at the human mu opioid receptor by methods substantially similar to those described in Zhang, et al., (1998) “Dynorphin A as a potential endogenous ligand for four members of the opioid receptor gene family.” J. Pharmacol. Exp. Ther., 286: 136-141.
IC50 values (concentration causing a half-maximal inhibition of control specific binding) and Hill coefficients (nH) were determined by non-linear regression analysis of the competition curves using Hill equation curve fitting.
Inhibition constants (Ki) were calculated from the Cheng Prusoff equation: (Ki=IC50/(1+(L/KD)), where L=concentration of radioligand in the assay, and KD=affinity of the radioligand for the receptor).
Results are expressed as a percent of control specific binding obtained in the presence of compounds 6-alpha-methylnaltrexol, 6-beta-methylnaltrexol and 3-sulfo-methylnaltrexone.

[1] = molecular target: μ-opioid receptors in the guinea pig ileum (Cavia porcellus, UniProt A0ACM8Q262); assay: Functional activity: inhibition of DAMGO-induced decrease of twitch contraction amplitude in guinea pig ileum; type: cell-based; settings: read-out: IC50 Value (concentration causing a half-maximal inhibition of DAMGO-induced decrease of twitch contraction amplitude)
Chain of μ-opioid receptors in the guinea pig ileum (A0ACM8Q262 1-400): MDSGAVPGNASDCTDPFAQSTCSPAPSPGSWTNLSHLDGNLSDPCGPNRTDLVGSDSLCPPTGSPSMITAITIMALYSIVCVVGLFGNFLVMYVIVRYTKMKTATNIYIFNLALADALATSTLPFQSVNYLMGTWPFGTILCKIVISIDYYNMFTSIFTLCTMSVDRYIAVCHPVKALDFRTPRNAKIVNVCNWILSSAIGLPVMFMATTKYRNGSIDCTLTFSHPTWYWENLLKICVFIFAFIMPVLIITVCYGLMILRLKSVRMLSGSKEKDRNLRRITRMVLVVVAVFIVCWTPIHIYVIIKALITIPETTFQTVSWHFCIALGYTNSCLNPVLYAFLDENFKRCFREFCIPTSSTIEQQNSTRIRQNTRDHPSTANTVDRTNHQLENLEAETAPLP
Experimental: The IC50 values (concentration causing a half-maximal inhibition of DAMGO-induced decrease of twitch contraction amplitude) were determined by non-linear regression analysis of the dose-response curves.
Results are expressed as a concentration causing a half-maximal inhibition of DAMGO-induced decrease of twitch contraction amplitude of guinea-pig ileum in the presence of compounds 6-alpha-methylnaltrexol, 6-beta-methylnaltrexol and 3-sulfo-methylnaltrexone.

Chain of human mu opioid receptor (P35372 whole entry): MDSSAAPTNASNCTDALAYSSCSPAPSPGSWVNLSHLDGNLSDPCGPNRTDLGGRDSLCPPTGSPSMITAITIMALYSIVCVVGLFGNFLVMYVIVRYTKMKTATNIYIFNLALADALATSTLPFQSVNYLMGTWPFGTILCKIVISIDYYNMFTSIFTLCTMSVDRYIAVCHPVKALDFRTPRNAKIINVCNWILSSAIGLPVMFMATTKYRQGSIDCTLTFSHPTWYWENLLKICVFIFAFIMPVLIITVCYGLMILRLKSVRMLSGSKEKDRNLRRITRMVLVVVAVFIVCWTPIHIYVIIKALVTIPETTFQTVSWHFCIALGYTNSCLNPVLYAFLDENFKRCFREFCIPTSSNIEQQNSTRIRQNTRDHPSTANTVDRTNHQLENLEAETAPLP

SMILES | IC50 (human mu opioid receptor) | Ki (human mu opioid receptor) | nH (Hill coefficient) (human mu opioid receptor) | IC50 [1]
C[N+]1(CC2CC2)CC[C@]23c4c5ccc(OS(=O)(=O)O)c4O[C@H]2C(=O)CC[C@@]3(O)[C@H]1C5 (stereo partly drawn) [Compound I-3, 3 sulfo-methylnaltrexone] | 8300 nM | 2200 nM | 0.8 | 10000 nM
C[N+]1(CC2CC2)CC[C@]23c4c5ccc(O)c4O[C@H]2[C@@H](O)CC[C@@]3(O)[C@H]1C5 (stereo partly drawn) [Compound I-1, (5α,6α)-17-cyclopropylmethyl-17-methyl-4,5-epoxy-3,6,14-trihydroxy-morphinan bromide] | 110 nM | 30 nM | 0.8 | 170 nM
C[N+]1(CC2CC2)CC[C@]23c4c5ccc(O)c4O[C@H]2[C@H](O)CC[C@@]3(O)[C@H]1C5 (stereo partly drawn) [Compound I-2, (5α,6β)-17-cyclopropylmethyl-17-methyl-4,5-epoxy-3,6,14-trihydroxy-morphinan bromide] | 230 nM | 60 nM | 0.9 | 140 nM
